Results: US11332477B2, “Nitrogen containing heterocycle substituted benzoxazine oxazolidinone compound and preparation method and use thereof” (INSTITUTE OF MATERIA MEDICA, CHINESE ACADEMY OF MEDICAL …, priority 2017, dated 2022)
In brackets after ≈: the same amount, converted by molar mass. Like-named read-outs stand apart in the source and are kept apart here.

Tests used:
[1] = test system: Mycobacterium tuberculosis H37Rv; assay: Anti-tuberculosis activity test in vitro (Microplate Alamar Blue Assay, MABA); format: cell-based; details: M. tuberculosis H37Rv, MABA, 7H9 medium, method says MIC90 was calculated, read-out: MIC
[2] = test system: mitochondrial protein synthesis; assay: Activity of inhibiting mitochondrial protein synthesis; format: biochemical
Procedure: The experimental steps were carried out according to the literature (Antimicrobial Agents and Chemotherapy, 2006, 50 (6), 2042-2049).

[3] = test system: Vero cells; assay: Cytotoxicity test (MTT); format: cell-based; details: Chlorocebus sabaeus; Vero cells, MTT, 48 hours of incubation, highest concentration 64 μg/mL; read-out: IC50
[4] = mitochondrial protein synthesis inhibition, Table 3

Structure (SMILES)	MIC [1] [mg/L]	IC50 [2, 4] [mg/L]	IC50 [3] [mg/L]	melting point [°C]	IC50 ([2]; read-out: IC50 value of mitochondrial protein synthesis inhibition) [µM]
NC[C@@H]1OC(=O)N2c3cc(F)c(N4CCSCC4)cc3OC[C@@H]12 [Compound 1, (3S,3aS)-3-(Aminomethyl)-8-fluoro-7-thiomorpholino-3a, 4-dihydro-1H,3H-benzo[b]ox azolo[3,4-d][1,4]oxazin-1-one]	0.029 (≈ 0.0854 µM)	75.51	36 (≈ 106 µM)	155 to 157	–
CC(=O)NC[C@@H]1OC(=O)N2c3cc(F)c(N4CCSCC4)cc3OC[C@@H]12 [Compound 4, N-(((3S,3aS)-8-Fluoro-1-oxo-7-thiomorpholino-3a,4-dihydro-1H,3H-benzo[b]oxazolo[3,4-d][1,4]oxazin-3-yl)methyl)acetamide]	0.044 (≈ 0.115 µM)	99.39	> 64	–	–
CC(C)C(=O)NC[C@@H]1OC(=O)N2c3cc(F)c(N4CCSCC4)cc3OC[C@@H]12 [Compound 5, N-(((3S,3aS)-8-Fluoro-1-oxo-7-thiomorpholino-3a,4-dihydro-1H,3H-benzo[b]oxazolo[3,4-d][1,4]oxazin-3-yl)methyl)isobutyramide]	0.095 (≈ 0.232 µM)	>100	> 64	193 to 195	–
O=C(NC[C@@H]1OC(=O)N2c3cc(F)c(N4CCSCC4)cc3OC[C@@H]12)C1CC1 [Compound 6, N-(((3S,3aS)-8-Fluoro-1-oxo-7-thiomorpholino-3a,4-dihydro-1H,3H-benzo[b]oxazolo[3,4-d][1,4]oxazin-3-yl)methyl)cyclopropanecarboxamide]	0.034 (≈ 0.0834 µM)	>100	> 64	209 to 211	–
CC(=O)NC[C@H]1OC(=O)N2c3cc(F)c(N4CCSCC4)cc3OC[C@H]12 [Compound 28, N-(((3R,3aR)-8-Fluoro-1-oxo-7-thiomorpholino-3a,4-dihydro-1H,3H-benzo[b]oxazolo[3,4-d][1,4]oxazin-3-yl)methyl)acetamide]	0.232 (≈ 0.608 µM)	>100	> 64	–	–
O=C(NC[C@@H]1OC(=O)N2c3cc(F)c(N4CC[S+]([O-])CC4)cc3OC[C@@H]12)C(F)F [Compound 34, 2,2-Difluoro-N-(((3S,3aS)-8-fluoro-7-(1-oxidothiomorpholino)-1-oxo-3a,4-dihydro-1H, 3H-benzo[b]oxazolo[3,4-d][1,4]oxazin-3-yl)methyl)acetamide]	0.492 (≈ 1.14 µM)	–	> 64	190 to 192	–
CC(=O)NC[C@@H]1OC(=O)N2c3cc(F)c(N4CCS(=O)(=O)CC4)cc3OC[C@@H]12 [Compound 35, N-(((3S,3aS)-7-(1,1-dioxidothiomorpholino)-8-fluoro-1-oxo-3a,4-dihydro-1H,3H-benzo [b]oxazolo[3,4-d][1,4]oxazin-3-yl)methyl)acetamide]	0.48 (≈ 1.16 µM)	–	> 64	226 to 228	–
O=C1O[C@@H](CNC2COC2)[C@@H]2COc3cc(N4CCSCC4)c(F)cc3N12 [Compound 36, (3S,3aS)-8-Fluoro-3-((oxetan-3-ylamino)methyl)-7-thiomorpholino-3a,4-dihydro-1H,3H-benzo[b]oxazolo[3,4-d][1,4]oxazin-1-one]	0.237 (≈ 0.599 µM)	–	> 64	162 to 164	–
CC(=O)NC[C@@H]1OC(=O)N2c3ccc(N4CCOCC4)cc3OC[C@@H]12 [Compound VII, reference compound]	1.55 (≈ 4.45 µM)	35.82	–	–	35.8
CC(=O)NC[C@H]1CN(c2ccc(N3CCOCC3)c(F)c2)C(=O)O1 [Linezolid, reference compound]	0.294 (≈ 0.871 µM)	8.71	–	–	–
CC(=O)NC[C@H]1CN(c2ccc(N3CCSCC3)c(F)c2)C(=O)O1 [Sutezolid, reference compound]	0.078 (≈ 0.221 µM)	7.98	–	–	–
